Square brackets hold non-standard residues; d marks the D form. Peptide text beside a SMILES is read from it. * marks the point of attachment. Sta = CC(C)C[C@H](N)[C@@H](O)CC(=O)O; Isovaleryl = CC(C)CC(=O)*
Experiments:
human renin = biological target: T1, human renin (Homo sapiens, UniProt P00797); experiment: Human Renin Inhibition in vitro; format: biochemical; settings: pH 7.4, 2 h at 37° C., human plasma, angiotensin I by radioimmunoassay
T1 construct: purchased National Institute for Biological Standards, London
T1 sequence (P00797 67-406): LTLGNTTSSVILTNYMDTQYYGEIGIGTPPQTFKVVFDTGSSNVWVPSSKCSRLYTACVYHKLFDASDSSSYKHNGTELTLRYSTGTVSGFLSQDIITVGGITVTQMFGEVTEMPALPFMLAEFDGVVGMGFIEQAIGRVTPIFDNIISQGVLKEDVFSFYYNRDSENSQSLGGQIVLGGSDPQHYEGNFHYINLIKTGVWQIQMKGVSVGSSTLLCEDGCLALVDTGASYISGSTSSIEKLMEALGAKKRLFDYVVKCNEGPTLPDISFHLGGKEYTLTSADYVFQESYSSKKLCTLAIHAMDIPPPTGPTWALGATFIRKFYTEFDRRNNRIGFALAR
Protocol: Compounds of Formula I were evaluated as inhibitors of human renin in an in vitro assay, as follows: This human renin inhibition test has been previously described in detail [Papaioannou et al., Clinical and Experimental Hypertension, A7(9), 1243-1257 (1985)]. Human renin was obtained from the National Institute for Biological Standards, London. An incubation mixture was prepared containing the following components: in a total volume of 0.25 mL: 100 mM Tris-acetate buffer at pH 7.4, 25×10^-6 Goldblatt units of renin, 0.05 mL of plasma from human volunteers taking oral contraceptives, 6.0 mM Na-EDTA, 2.4 mM phenylmethyl sulfonyl fluoride, 1.5 mM 8-hydroxyquinoline, 0.4 mg/mL bovine serum albumin (BSA), and 0.024 mg/mL neomycin sulfate. This mixture was incubated for two hours at 37° C. in the presence or absence of renin inhibitors. The produced angiotensin I was determined by radioimmunoassay (New England Nuclear kit). Test compounds to be assayed were dissolved in DMSO and diluted with 100 mM Tris-acetate buffer at pH 7.4 containing 0.5% BSA to the appropriate concentration. The final concentration of organic solvent in the reaction mixture was less than 1%. Control incubations at 37° C. were used to correct for effects of organic solvent on renin activity.

hog renin = settings: nephrectomized rats, after injection of hog renin; cited from earlier work
pepsin = settings: cited from earlier work
cathepsin D = settings: cited from earlier work
renin = settings: cited from earlier work

IC50 (human renin) [nM] | Structure (SMILES) | reduce blood pressure in vivo (hog renin) | inhibitor of pepsin (pepsin) | inhibitor of cathepsin D (cathepsin D) | inhibitor of renin (renin)
2.7 | CC(C)C[C@H](O)[C@H](O)[C@H](CC1CCCCC1)NC(=O)[C@H](CC1CC1)NC(=O)C(CSC(C)(C)C)Cc1ccccc1 (stereo partly drawn) [Example 2] |  |  |  | 
0.3 | CC(C)C[C@H](O)[C@H](O)[C@H](CC1CCCCC1)NC(=O)[C@H](CC1CC1)NC(=O)C(Cc1ccccc1)CS(=O)(=O)C(C)(C)C (stereo partly drawn) [Example 1] |  |  |  | 
 | CC(C)CC(=O)N[C@H](C(=O)N[C@H](C(=O)N[C@@H](CC(C)C)[C@@H](O)CC(=O)N[C@@H](C)C(=O)N[C@@H](CC(C)C)[C@@H](O)CC(=O)O)C(C)C)C(C)C [pepstatin] (Isovaleryl-VV[Sta]A[Sta]-OH) | reduce blood pressure in vivo | inhibitor | inhibitor | inhibitor
